In ChEMBL document CHEMBL1123354, “Antitumor agents. 78. Inhibition of human DNA topoisomerase II by podophyllotoxin and alpha-peltatin analogues” (J Med Chem, 1986) one finds inhibition data, which are given here for nine molecules.

Molecules are shown by their SMILES.

For orientation: inhibition means the drop in the measured response relative to a control, in per cent.

The first experiment addresses T1, DNA topoisomerase II (Homo sapiens) (UniProt P11388+Q02880). In words: (§1) Compound was tested for percentage inhibition against DNA topoisomerase II. Format: protein assay. The conditions noted are these: concentration not given here.
Regarding `COc1cc([C@@H]2c3cc(OC(C)=O)c(OC(C)=O)c(OC(C)=O)c3CC3COC(=O)[C@@H]32)cc(OC)c1OC(C)=O` (some centres undefined), the inhibition amounted to 25%.
On the same count and under the same terms, the result for `COc1cc([C@@H]2c3cc4c(c(OC(C)=O)c3CC3COC(=O)[C@@H]32)OCO4)cc(OC)c1OC(C)=O` (some centres undefined) reads 10%; that for `COc1cc([C@@H]2c3cc4c(cc3[C@@H](O)C3COC(=O)[C@@H]32)OCO4)cc(O)c1O` (some centres undefined), 75%; that for `COc1cc([C@@H]2c3cc(O)c(O)c(O)c3CC3COC(=O)[C@@H]32)cc(OC)c1O` (some centres undefined), 45%.

The next experiment concerns the target T1, DNA topoisomerase II (Homo sapiens). Described as §1. In kind it is protein assay. As to conditions: concentration not given here. The arrangement: concentration or dose not given beside the values.
`COc1cc([C@@H]2c3cc4c(c(O)c3C[C@H]3COC(=O)[C@@H]32)OCO4)cc(OC)c1O` registered an inhibition of 20%.
On the same count and under the same terms, then `CCO[C@@H]1c2cc3c(cc2[C@@H](c2cc(OC)c(O)c(OC)c2)[C@H]2C(=O)OCC12)OCO3` (some centres undefined), with 89%; and `COc1cc([C@@H]2c3cc4c(cc3[C@H](O)[C@H]3COC(=O)[C@H]23)OCO4)cc(OC)c1OC`, with 30%.
Molecule `COc1cc([C@@H]2c3cc4c(cc3[C@@H](O[C@@H]3O[C@@H]5CO[C@@H](C)O[C@H]5[C@H](O)[C@H]3O)[C@H]3COC(=O)[C@H]23)OCO4)cc(OC)c1O` yielded an inhibition of 85%.
The same measure, in the same setting: then `COc1cc([C@@H]2c3cc4c(cc3[C@@H](O)[C@H]3COC(=O)[C@H]23)OCO4)cc(OC)c1O`, with 60%.
